# Data published in US20240050428A1 (Cullgen (Shanghai), Inc., priority 2020, published 2024).
# Read-outs that look alike come from different tables or passages of the source.
# Assays:
# [1] = system: tested cell lines; conditions: tested cell lines (Matyskiela, Lu et al. 2016); cited from earlier work
# [2] = target: GSPT1 (Homo sapiens, UniProt P15170+Q96SW2); conditions: cereblon-dependent; also other targets such as IKZF1 and IKZF3 (Matyskiela, Lu et al. 2016); cited from earlier work
# [3] = system: MOLM-13 cells; assay: Cell viability / cell growth inhibition of MOLM-13 cells, GSPT1 degrader with or without gilteritinib; assay type: cell-based; conditions: combined with FLT3 inhibitor gilteritinib (20 nM in FIG. 2A-2C)
# Protocol: FIG. 2A is a graph of cell viability in MOML-13 cells treated with varying doses of GS-002, with or without gilteritinib at 20 nM.
# FIG. 2B is a graph of cell viability in MOML-13 cells treated with varying doses of GS-005, with or without gilteritinib at 20 nM.
# FIG. 2C is a graph of cell viability in MOML-13 cells treated with varying doses of GS-006, with or without gilteritinib at 20 nM.
# When combined with FLT3 inhibitor gilteritinib, the potency of some of the compounds was increased synergistically.
# [4] = system: MOLM-13 cells; assay: Cell viability assay (CellTiter-Glo) in MOLM-13 cells, alone or with gilteritinib; assay type: cell-based; conditions: MOLM-13 cells; for IC50: Homo sapiens, MOLM-13, 72 h, CellTiter-Glo; for Sensitivity of FLT3-mutant AML cells to GSPT1 degrader upon FLT3 inhibition: with or without 20 nM gilteritinib, 3 days (FIG. 2A-2C)
# [5] = system: MV4;11 cells; assay: Cell viability assay (CellTiter-Glo) in MV4;11 cells, alone or with gilteritinib; assay type: cell-based; conditions: Homo sapiens, MV4-11, 72 h, MV4;11 cells, CellTiter-Glo, read-out: MV4
# [6] = with 20 nM gilteritinib, 3 days, read-out: MOLM-13 IC50 gilteritinib
# [7] = without gilteritinib, 3 days, read-out: MOLM-13 IC50
# [8] = with 10 nM gilteritinib, 3 days, 11 IC50 gilteritinib
# [9] = without gilteritinib, 3 days, 11 IC50
# [10] = compound alone (without gilteritinib), three days, read-out: MOLM-13 IC50
# [11] = compound with gilteritinib 20 nM, three days, read-out: MOLM-13 IC50 gilteritinib
# [12] = compound alone (without gilteritinib), three days, 11 IC50
# [13] = compound with gilteritinib 10 nM, three days, 11 IC50 gilteritinib
# GSPT1, sequence (P15170 whole entry): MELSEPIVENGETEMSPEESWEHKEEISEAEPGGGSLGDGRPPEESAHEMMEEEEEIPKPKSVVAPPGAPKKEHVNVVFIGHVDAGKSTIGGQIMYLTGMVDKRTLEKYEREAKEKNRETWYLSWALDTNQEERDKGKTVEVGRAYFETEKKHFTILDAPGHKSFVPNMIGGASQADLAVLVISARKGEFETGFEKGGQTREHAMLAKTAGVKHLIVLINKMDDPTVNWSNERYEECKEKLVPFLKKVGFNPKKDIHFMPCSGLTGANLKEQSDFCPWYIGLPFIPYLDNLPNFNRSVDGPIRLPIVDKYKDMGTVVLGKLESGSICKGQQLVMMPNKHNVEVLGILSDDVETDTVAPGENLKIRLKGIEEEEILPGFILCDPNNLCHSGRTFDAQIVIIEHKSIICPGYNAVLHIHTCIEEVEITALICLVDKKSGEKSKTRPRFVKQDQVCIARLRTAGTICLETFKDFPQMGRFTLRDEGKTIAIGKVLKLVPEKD
# GSPT1, sequence (Q96SW2 whole entry): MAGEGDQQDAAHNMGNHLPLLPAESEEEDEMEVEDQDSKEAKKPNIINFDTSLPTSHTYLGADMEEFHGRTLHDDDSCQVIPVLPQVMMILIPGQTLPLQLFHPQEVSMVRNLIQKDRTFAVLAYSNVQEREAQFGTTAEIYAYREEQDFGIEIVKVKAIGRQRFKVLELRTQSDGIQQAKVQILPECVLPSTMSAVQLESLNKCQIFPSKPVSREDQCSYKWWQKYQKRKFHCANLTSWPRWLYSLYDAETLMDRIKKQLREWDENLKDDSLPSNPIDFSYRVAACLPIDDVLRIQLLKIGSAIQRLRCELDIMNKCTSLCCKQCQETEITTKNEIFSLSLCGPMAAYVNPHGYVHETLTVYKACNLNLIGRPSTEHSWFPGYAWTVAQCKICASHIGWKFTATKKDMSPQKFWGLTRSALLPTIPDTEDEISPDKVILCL
# GSPT1, sequence (Q16531 whole entry partner): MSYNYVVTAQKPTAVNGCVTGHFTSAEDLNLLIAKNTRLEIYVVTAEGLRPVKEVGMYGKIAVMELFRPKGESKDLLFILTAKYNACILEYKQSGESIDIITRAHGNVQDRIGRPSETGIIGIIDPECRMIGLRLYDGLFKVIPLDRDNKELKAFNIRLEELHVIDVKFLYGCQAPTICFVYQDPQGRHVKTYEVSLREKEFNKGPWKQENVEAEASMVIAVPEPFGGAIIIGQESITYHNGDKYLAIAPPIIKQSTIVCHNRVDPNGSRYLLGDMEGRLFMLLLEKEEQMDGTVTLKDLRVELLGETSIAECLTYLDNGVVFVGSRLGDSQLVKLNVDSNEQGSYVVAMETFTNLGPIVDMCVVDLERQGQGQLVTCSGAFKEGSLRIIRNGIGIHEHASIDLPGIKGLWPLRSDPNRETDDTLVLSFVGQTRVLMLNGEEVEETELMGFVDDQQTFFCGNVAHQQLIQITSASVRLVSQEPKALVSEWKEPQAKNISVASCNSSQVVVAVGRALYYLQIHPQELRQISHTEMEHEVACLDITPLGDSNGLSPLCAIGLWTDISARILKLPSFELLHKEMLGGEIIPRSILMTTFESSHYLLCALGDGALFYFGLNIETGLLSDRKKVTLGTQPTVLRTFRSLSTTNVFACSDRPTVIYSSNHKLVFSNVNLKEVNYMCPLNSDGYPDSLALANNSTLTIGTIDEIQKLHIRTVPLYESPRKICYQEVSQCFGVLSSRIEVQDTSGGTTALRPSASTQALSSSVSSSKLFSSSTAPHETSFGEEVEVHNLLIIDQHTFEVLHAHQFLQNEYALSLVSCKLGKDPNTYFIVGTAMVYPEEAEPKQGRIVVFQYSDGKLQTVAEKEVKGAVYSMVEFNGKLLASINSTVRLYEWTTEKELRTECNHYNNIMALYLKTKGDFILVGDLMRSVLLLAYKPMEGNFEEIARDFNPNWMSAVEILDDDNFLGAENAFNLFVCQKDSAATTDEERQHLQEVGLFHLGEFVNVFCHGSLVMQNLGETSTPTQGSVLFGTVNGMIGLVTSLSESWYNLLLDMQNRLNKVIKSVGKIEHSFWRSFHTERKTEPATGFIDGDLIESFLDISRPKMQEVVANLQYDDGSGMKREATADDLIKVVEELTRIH
SMILES,toxicity in cell lines [1],degradation of GSPT1 [2],"potency combined with gilteritinib, cell growth inhibition [3]","IC50 [4, 6]","IC50 [4, 7]",Sensitivity of FLT3-mutant AML cells to GSPT1 degrader upon FLT3 inhibition [4],"IC50 [5, 8]","IC50 [5, 9]","IC50 [4, 10]","IC50 [4, 11]","IC50 [5, 12]","IC50 [5, 13]"
Cc1ccc(NC(=O)NCc2ccc3c(c2)CN(C2CCC(=O)NC2=O)C3=O)cc1Cl (stereo not drawn) [CC-885],significant toxicity in the vast majority of tested cell lines,cereblon-dependent degradation of GSPT1,–,–,–,–,–,–,–,–,–,–
"O=C1CCC(N2C(=O)c3ccc(NCCCCCC(=O)N4CCC(n5cc(-c6cnc7cccc(Br)c7n6)cn5)CC4)cc3C2=O)C(=O)N1 (stereo not drawn) [GS-002, 5-((6-(4-(4-(8-bromoquinoxalin-2-yl)-1H-pyrazol-1-yl)piperidin-1-yl)-6-oxohexyl)amino)-2-(2,6-dioxopiperidin-3-yl)isoindoline-1,3-dione]",–,–,significantly improved,1.9 nM,583 nM,remarkably increases sensitivity,3 nM,227 nM,–,–,–,–
"O=C1CCC(N2C(=O)c3ccc(NCCCCCC(=O)N4CCC(n5cc(-c6cnc7ccccc7n6)cn5)CC4)cc3C2=O)C(=O)N1 (stereo not drawn) [GS-005, 2-(2,6-dioxopiperidin-3-yl)-5-((6-oxo-6-(4-(4-(quinoxalin-2-yl)-1H-pyrazol-1-yl)piperidin-1-yl)hexyl)amino)isoindoline-1,3-dione]",–,–,significantly improved,0.2 nM,11.8 nM,remarkably increases sensitivity,1.8 nM,6 nM,–,–,–,–
"O=C1CCC(N2C(=O)c3ccc(NCCCCCC(=O)N4CCC(n5cc(-c6ccc7ccccc7n6)cn5)CC4)cc3C2=O)C(=O)N1 (stereo not drawn) [GS-006, 2-(2,6-dioxopiperidin-3-yl)-5-((6-oxo-6-(4-(4-(quinolin-2-yl)-1H-pyrazol-1-yl)piperidin-1-yl)hexyl)amino)isoindoline-1,3-dione]",–,–,significantly improved,0.3 nM,29 nM,remarkably increases sensitivity,4.6 nM,12 nM,–,–,–,–
"Cc1nc(-c2cn([C@H]3C[C@H](CNc4ccc5c(c4)C(=O)N(C4CCC(=O)NC4=O)C5=O)C3)nc2C(F)F)ccc1F (stereo partly drawn) [GS-635, 5-(((trans-3-(3-(Difluoromethyl)-4-(5-fluoro-6-methylpyridin-2-yl)-1H-pyrazol-1-yl)cyclobutyl)methyl)amino)-2-(2,6-dioxopiperidin-3-yl)isoindoline-1,3-dione]",–,–,–,–,–,–,–,–,10 to 100 nM,< 10 nM,10 to 100 nM,< 10 nM
"Cc1cccc(-c2cn([C@H]3C[C@H](CNc4ccc5c(c4)C(=O)N(C4CCC(=O)NC4=O)C5=O)C3)nc2C(=O)N(C)C)n1 (stereo partly drawn) [GS-636, 1-(trans-3-(((2-(2,6-dioxopiperidin-3-yl)-1,3-dioxoisoindolin-5-yl)amino)methyl)cyclobutyl)-N,N-dimethyl-4-(6-methylpyridin-2-yl)-1H-pyrazole-3-carboxamide]",–,–,–,–,–,–,–,–,> 1000 nM,> 1000 nM,> 1000 nM,> 1000 nM
"CNC(=O)c1nn([C@H]2C[C@H](CNc3ccc4c(c3)C(=O)N(C3CCC(=O)NC3=O)C4=O)C2)cc1-c1cccc(C)n1 (stereo partly drawn) [GS-637, 1-(trans-3-(((2-(2,6-dioxopiperidin-3-yl)-1,3-dioxoisoindolin-5-yl)amino)methyl)cyclobutyl)-N-methyl-4-(6-methylpyridin-2-yl)-1H-pyrazole-3-carboxamide]",–,–,–,–,–,–,–,–,100 to 1000 nM,10 to 100 nM,10 to 100 nM,< 10 nM
"Cc1cccc(-c2cn([C@H]3C[C@H](CNc4ccc5c(c4)C(=O)N(C4CCC(=O)NC4=O)C5=O)C3)nc2C2CCNCC2)n1 (stereo partly drawn) [GS-638, 2-(2,6-Dioxopiperidin-3-yl)-5-(((trans-3-(4-(6-methylpyridin-2-yl)-3-(piperidin-4-yl)-1H-pyrazol-1-yl)cyclobutyl)methyl)amino)isoindoline-1,3-dione]",–,–,–,–,–,–,–,–,> 1000 nM,> 1000 nM,> 1000 nM,> 1000 nM
"Cc1nn([C@H]2C[C@H](CCCNc3ccc4c(c3)C(=O)N(C3CCC(=O)N(C)C3=O)C4=O)C2)cc1-c1cnc2ccccc2n1 (stereo partly drawn) [GS-639, 2-(1-Methyl-2,6-dioxopiperidin-3-yl)-5-((3-(trans-3-(3-methyl-4-(quinoxalin-2-yl)-1H-pyrazol-1-yl)cyclobutyl)propyl)amino)isoindoline-1,3-dione]",–,–,–,–,–,–,–,–,> 1000 nM,> 1000 nM,> 1000 nM,> 1000 nM
"CCc1nc(C(N)=O)c(Nc2ccc(N3CCC(N4CCN(C)CC4)CC3)c(OC)c2)nc1NC1CCOCC1 [gilteritinib, reference compound]",–,–,–,–,7 nM,–,–,2.3 nM,–,–,–,–
